Where two headings read alike, the source gives them in different places.
Legend:
Assay type in all cases: biochemical
[1] = target: T1, Cathepsin B (Homo sapiens, UniProt P07858); assay: IC50 determination against Cathepsin B (Biovision kit K147-100); details: for Selectiviy vs Cathepsin K (fold): selectivity for Cathepsin B over Cathepsin K; for Selectiviy vs Cathepsin L (fold): selectivity for Cathepsin B over Cathepsin L; for Selectiviy vs Cathepsin S (fold): selectivity for Cathepsin B over Cathepsin S
T1 construct: purchased Biovision K147-100
Description: (§1) 2. Method for determining IC50 of compounds against cathepsin:
IC50 of compounds against Cathepsin B was determined by using Cathepsin B Inhibitor Screening Kit (Product No. K147-100) from Biovision Company;
2.1.1.2 Preparation of Cathepsin B solution: Cathepsin B enzyme (23 μl) and Cathepsin B reagent (46 μl) were added to Cathepsin B buffer (2231 μl), and mixed well, to prepare Cathepsin B enzyme solution with a volume of 2.3 ml, which was placed on ice for further use.
(§2) 2.1.2 Preparation of compound solutions: 30 mM and 10 mM compound stock solutions, and control compounds were gradiently diluted in DMSO at a ratio of 1:3, wherein the maximum dilution fold was 19683; the gradiently diluted compound solution (3 μl) was added to Cathepsin K, B, L, and S buffer (27 μl), respectively, and mixed well, wherein the control compounds (FF-FMK, F-F-FMK, FF-FMK and Z-FF-FMK) were at the concentrations of 66.67, 22.22, 7.41, 2.47, 0.82, 0.27, 0.091, 0.03, 0.01, 0.0034 and 0 μM, respectively, the test compounds were at the concentrations of 1000, 333.3, 111.1, 37, 12.3, 4.1, 1.4, 0.46, 0.15, 0.05 and 0 μM, respectively, and the final concentration of DMSO was 10%.
2.1.3.2 Cathepsin B: Cathepsin B substrate (90 μl) was added to Cathepsin B buffer (1710 μl), and mixed well, to prepare Cathepsin B substrate solution with a volume of 1.8 ml, which was placed on ice for further use.
(§3) Method for screening cathepsin inhibitors: the cathepsin solution (prepared in Item 2.1.1) was added to a 384-well plate (ProxiPlate-384 Plus, Perkinelmer) at 10 μl/well, and centrifuged at 1000 rpm for Imin; the compound solution (prepared in Item 2.1.2) was then added at 2 μl/well, and every concentration was repeated in two wells; the final concentrations of the test compounds were 100, 33.3, 11.1, 3.7, 1.23, 0.41, 0.14, 0.046, 0.015, 0.005 and 0 μM, respectively, wherein the final concentration of DMSO was 1%; after centrifugation at 1000 rpm for 1 min, the plate was put in a 25° C. incubator for 15 min; the cathepsin substrate solution was then added at 8 µl/well, and centrifuged at 1000 rpm for 1 min; and finally, the fluorescence signal was read in Enspire, wherein the exciting light was at a wavelength of 400 nm, the emitting light was at a wavelength of 505 nm, and continuous reading was performed at 37° C. for 120 min.
(§4) Data analysis: the slope (S) for all the samples was calculated by ΔRFU(RFU2−RFU1) and time ΔT(T2−T1), including negative control (Enzyme Control, EC) and positive control (Inhibitor Control, IC: 10 μM (FF-FMK, F-F-FMK, FF-FMK and Z-FF-FMK), and the calculation formula was as followed: Relative inhibition rate %=(SEC−SS)/(SEC−SIC)*100. The IC50 for each compound was obtained by means of fitting by software GraphPad Prism 5.0.

[2] = target: T2, Cathepsin L (Homo sapiens, UniProt P07711); assay: IC50 determination against Cathepsin L (Biovision kit K161-100); details: CTSL
T2 construct: purchased Biovision K161-100
Description: as §1
IC50 of compounds against Cathepsin L was determined by using Cathepsin L Inhibitor Screening Kit (Product No. K161-100) from Biovision Company;
2.1.1.3 Preparation of Cathepsin L solution: Cathepsin L reagent (3 μl) was added to Cathepsin L enzyme (3 μl), mixed well, and on standing for 1 h, to get 1 mU/μl Cathepsin L enzyme solution. Cathepsin L buffer (24 μl) was added to 1 mU/μl cathepsin L enzyme solution (6 μl), to get 0.2 mU/μl Cathepsin L enzyme solution. 0.2 mU/μl cathepsin L enzyme (23 μl), and DTT (46 μl) were added to Cathepsin L buffer (2231 μl), and mixed well, to prepare Cathepsin L enzyme solution with a volume of 2.3 ml, which was placed on ice for further use.
as §2
2.1.3.3 Cathepsin L: Cathepsin L substrate (45 μl) was added to Cathepsin L buffer (1755 μl), and mixed well, to prepare Cathepsin L substrate solution with a volume of 1.8 ml, which was placed on ice for further use.
as §3, §4

[3] = target: T3, Cathepsin S (Homo sapiens, UniProt P25774); assay: IC50 determination against Cathepsin S (Biovision kit K149-100); details: CTSS
T3 construct: purchased Biovision K149-100
Description: as §1
IC50 of compounds against Cathepsin S was determined by using Cathepsin S Inhibitor Screening Kit (Product No. K149-100) from Biovision Company.
2.1.1.4 Preparation of Cathepsin S solution: Cathepsin S enzyme (46 μl) was added to Cathepsin S buffer (2254 μl), and mixed well, to prepare Cathepsin S enzyme solution with a volume of 2.3 ml, which was placed on ice for further use.
as §2
2.1.3.4 Cathepsin S: Cathepsin S substrate (90 μl) was added to Cathepsin S buffer (1710 μl), and mixed well, to prepare Cathepsin S substrate solution with a volume of 1.8 ml, which was placed on ice for further use.
as §3, §4

[4] = target: T4, Cathepsin K (Homo sapiens, UniProt P43235); assay: IC50 determination against Cathepsin K (Biovision kit K150-100); details: CTSK
T4 construct: purchased Biovision K150-100
T4 sequence (P43235 115-329): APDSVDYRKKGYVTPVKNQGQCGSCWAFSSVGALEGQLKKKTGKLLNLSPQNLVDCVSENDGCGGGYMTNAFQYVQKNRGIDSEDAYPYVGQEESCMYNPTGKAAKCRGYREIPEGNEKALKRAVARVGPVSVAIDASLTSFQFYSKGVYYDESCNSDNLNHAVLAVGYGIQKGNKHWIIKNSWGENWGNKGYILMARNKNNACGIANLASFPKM
Description: as §1
IC50 of compounds against Cathepsin K was determined by using Cathepsin K Inhibitor Screening Kit (Product No. K150-100) from Biovision Company;
2.1.1.1 Preparation of Cathepsin K solution: Cathepsin K enzyme (23 μl) and Cathepsin K reagent (46 μl) were added to Cathepsin K buffer (2231 μl), and mixed well, to prepare Cathepsin K enzyme solution with a volume of 2.3 ml, which was placed on ice for further use.
as §2
2.1.3.1 Cathepsin K: Cathepsin K substrate (90 μl) was added to Cathepsin K buffer (1710 μl), and mixed well, to prepare Cathepsin K substrate solution with a volume of 1.8 ml, which was placed on ice for further use.
as §3, §4

[5] = CTSB, Exp-1, read-out: IC50 (nM) Exp-1
[6] = CTSB, Exp-2, read-out: IC50 (nM) Exp-2
[7] = CTSB, average of Exp-1 and Exp-2, read-out: Ave of IC50
[8] = Table 3, average ± STDEV, read-out: Cathepsin B IC50
[9] = Exp-1, read-out: IC50 (nM) Exp-1
[10] = Exp-2, read-out: IC50 (nM) Exp-2
[11] = average of Exp-1 and Exp-2, read-out: Ave of IC50

T2 sequence (P07711 114-333): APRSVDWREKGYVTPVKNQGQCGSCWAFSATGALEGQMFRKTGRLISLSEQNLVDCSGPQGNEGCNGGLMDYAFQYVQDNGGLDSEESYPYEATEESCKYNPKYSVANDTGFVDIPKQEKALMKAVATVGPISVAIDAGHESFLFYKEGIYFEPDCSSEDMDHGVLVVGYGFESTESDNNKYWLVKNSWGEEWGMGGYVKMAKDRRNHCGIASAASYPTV
T3 sequence (P25774 115-331): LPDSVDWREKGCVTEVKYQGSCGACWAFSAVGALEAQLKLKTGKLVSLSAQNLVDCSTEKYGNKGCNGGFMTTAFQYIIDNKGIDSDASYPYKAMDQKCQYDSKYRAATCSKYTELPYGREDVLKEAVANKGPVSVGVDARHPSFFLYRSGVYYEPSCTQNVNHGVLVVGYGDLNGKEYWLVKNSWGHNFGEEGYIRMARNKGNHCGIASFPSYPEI

Structure (SMILES) | IC50 [1, 5] | IC50 [1, 6] | IC50 [1, 7] | IC50 [1, 8] | Selectiviy vs Cathepsin K (fold) [1] | Selectiviy vs Cathepsin L (fold) [1] | Selectiviy vs Cathepsin S (fold) [1] | selectivity for Cathepsin B ([1]; statement in words, versus Cathepsin K, L, S) | IC50 [2, 9] | IC50 [2, 10] | IC50 [2, 11] | IC50 [3, 9] | IC50 [3, 10] | IC50 [3, 11] | IC50 [4, 9] | IC50 [4, 10] | IC50 [4, 11]
CCOC(=O)[C@H]1O[C@@H]1C(=O)N[C@@H](CCSC)C(=O)NCCCCc1ccccc1 [Compound 40, (2s, 3s)-2-ethoxycarbonyl-3-[2-[(s)-4-methylthio-1-carbonyl-1-(4-phenylbutylamino)butane]formylamino]epoxysuccinic acid] | 20.3 nM | 27.1 nM | 23.7 nM | 23.7 ± 4.78 nM | 28 fold | 185 fold | 149 fold | strong selectivity for Cathepsin B | 4160 nM | 4610 nM | 4390 nM | 834 nM | 1510 nM | 1170 nM | 704 nM | 606 nM | 655 nM
CCOC(=O)[C@H]1O[C@@H]1C(=O)N[C@@H](CC(C)C)C(=O)NCCC(C)C [zxy-37, E64d, reference compound] | 10.6 nM | 13.5 nM | 12 nM | 12 ± 2.03 nM | 39 fold | 15 fold | 55 fold | – | 171 nM | 180 nM | 175 nM | 753 nM | 571 nM | 662 nM | 488 nM | 465 nM | 477 nM

Reference: US10647690B2, “2,3-epoxy succinyl derivative, preparation method and use thereof” (Institute of Pharmacology and Toxicology Academy of …, priority 2016, dated 2020)
